Data reported in patent US6703371B1, “Preparations for reducing oxygen consumption during physical efforts” (priority 1999, dated 2004).
Where two headings read alike, the source gives them in different places.

What was measured:
test subject [1] = assay: Bicycle ergometer test at 100 W: antagonism between inactive (1st dosage) and active (2nd dosage) substances (Example 1b); format: in vivo, human; details: for Average heart rate after 1st dosage: 10-minute test at 100 W; for Average heart rate before: 10-minute control test at 100 W before the 1st dosage; for Change in the oxygen consumption after 2nd dosage: relative to after 1st dosage
Method: (§1) 13 to Mar. 6, 1999, with a subject in good physical condition under standard conditions. The subject was required each morning in the fasting state to perform successively (without interruption) at mechanical power output of 100 W, 125 W and 150 W, each lasting 10 minutes (total test duration 30 minutes each time). […] The heat production induced by mechanical exertion was calculated from the changes in the heart rate. An alternative possibility is also to determine it on the basis of the increase in humidity caused by the perspiration (the tests are carried out in a closed room) or reduction in weight (1 g of water=2.26 kJ). […] The values indicated in table la for the “average heart rate” are in each case averages over the 30-minute duration of the test; relative values for the oxygen consumption were established on the basis of the heart rates in a known manner, and the relative values indicated in Table 1a are based on the oxygen consumption on the first day (=100%); the values listed in the column “heat production” in Table 1a give the percentage deviation of the heat production, established on the basis of the perspiration, from the average from all the tests.
(§2) It is known that the oxygen uptake can be determined by measuring the heart rate as a function of the mechanical exertion. This ergometric method is based on establishing the oxygen transport volume through the action of the heart. Since the stroke volume is essentially constant irrespective of the intensity of the mechanical work, and the increased oxygen demand caused by the increase in work results in an increase in the heart rate, the quantity of the transported oxygen can be established by determining the additional heartbeats caused by the work. A 3-stage ergometer as recommended by the World Health Organization (WHO) is used in physiology research institutes and fitness clubs around the world.

[2] = Oxygen-sparing action during physical work, general findings in the description; format: in vivo; details: result in words; for Oxygen demand after administration: even occasionally increased
test subject [3] = format: in vivo, human; details: Homo sapiens, 10 min
test subject [4] = assay: Bicycle ergometer test at 100 W: active ingredient, sucrose, further active ingredient, amino acid/vitamin product (Example 1c); format: in vivo, human; details: for Change in oxygen consumption after 2nd dos.: 2nd dosage 2.5 g of sucrose; for Change in oxygen consumption after 2nd dos. / Change in oxygen consumption after 4th dos. / Change in oxygen consumption after 3rd dos.: relative to preceding dosage; for Change in oxygen consumption after 4th dos.: 4th dosage Na glutamate/folic acid/cyanocobalamin/gelatin; for Average heart rate after 1st dos.: 10-minute test at 100 W
test subject [5] = assay: as above; format: in vivo, human; details: for Average heart rate after 4th dos.: 4th dosage 100 mg of Na glutamate, 0.3 mg of folic acid, 5 μg of cyanocobalamin in 10 mg of gelatin; for Average heart rate after 2nd dos.: then 2nd dosage 2.5 g of sucrose
Method: as §1, §2

[6] = 1st dosage 10 mg in 20 ml of water
[7] = read-out: Change in the oxygen demand
[8] = read-out: Heat production (deviation from the average of all the tests)
[9] = 2nd dosage 1 mg, after 50 mg of opipramol, 100 W
[10] = 2nd dosage 1 mg, after 1st dosage of 50 mg of opipramol, 100 W
[11] = 1st dosage 1 mg as dilute aqueous solution
[12] = 3rd dosage further 1 mg of active ingredient
[13] = 3rd dosage further 1 mg of active ingredient after sucrose
[14] = after 1 mg of active ingredient

Cl.Cl.OCCN1CCN(CCC=C2c3ccccc3Sc3ccc(C(F)(F)F)cc32)CC1 (mixture of isomers) [flupentixol]
Average heart rate after 1st dosage (test subject [1]; 1st dosage 0.5 mg in 20 ml of water): 118.4 per minute
Change in the oxygen consumption after 1st dosage (test subject [1]; 1st dosage 0.5 mg, 100 W): +32%
Average heart rate before (test subject [1]): 102.6 per minute
Oxygen demand after administration [2]: not reduced

CN(C)CCC=C1c2ccccc2CCc2ccccc21 [amitriptyline]
Average heart rate after 1st dosage (test subject [1]; [6]): 119.3 per minute
change in vivo at 10 mg (test subject [1]; Homo sapiens, 1st dosage 10 mg, 100 W, read-out: Change in the oxygen consumption after 1st dosage): 71%
Oxygen demand after administration [2]: not reduced

CCOC(=O)n1ccn(C)c1=S [carbimazole]
Suitability for reducing the oxygen consumption during physical work [2]: suitable

CNC1=Nc2ccc(Cl)cc2C(c2ccccc2)=[N+]([O-])C1 [chlordiazepoxide]
Average heart rate after 1st dosage (test subject [1]; 1st dosage 5 mg in 20 ml of water): 126.4 per minute
change in vivo at 5 mg (test subject [1]; Homo sapiens, 1st dosage 5 mg, 100 W, read-out: Change in the oxygen consumption after 1st dosage): 29%
change in vivo at 1 mg (test subject [3]; [7]): 0%
change in vivo at 1 mg (test subject [3]; [8]): 14%

CN(C)CC/C=C1/c2ccccc2Sc2ccc(Cl)cc21 [chlorprothixen, chlorprothixene]
Average heart rate after 1st dosage (test subject [1]; [6]): 124.6 per minute
Change in the oxygen consumption after 1st dosage (test subject [1]; 1st dosage 10 mg, 100 W): +46%
Average heart rate before (test subject [1]): 101.7 per minute
Oxygen demand after administration [2]: not reduced

CN1CCC[C@@H]1CCO[C@](C)(c1ccccc1)c1ccc(Cl)cc1 [clemastine]
Suitability for reducing the oxygen consumption during physical work [2]: suitable

CN1C(=O)CC(=O)N(c2ccccc2)c2cc(Cl)ccc21 [clobazam]
change in vivo at 1 mg (test subject [3]; [7]): -51%
change in vivo at 1 mg (test subject [3]; [8]): -49%

CN(C)CCCN1c2ccccc2CCc2ccc(Cl)cc21 [clomipramine]
Average heart rate after 1st dosage (test subject [1]; 1st dosage 25 mg in 20 ml of water): 134.8 per minute
change in vivo at 25 mg (test subject [1]; Homo sapiens, 1st dosage 25 mg, 100 W, read-out: Change in the oxygen consumption after 1st dosage): 42%
Oxygen demand after administration [2]: not reduced

CN1CCN(C2=Nc3ccccc3Sc3ccc(Cl)cc32)CC1 [clothiapine]
Change in the oxygen consumption after 2nd dosage (test subject [1]; 2nd dosage 1 mg, after 25 mg of clomipramine, 100 W): −70%
Change in the oxygen consumption after 2nd dosage (test subject [1]; [9]): −65%
Average heart rate after 2nd dosage (test subject [1]; 2nd dosage 1 mg, after 1st dosage of 25 mg of clomipramine, 100 W): 100.0 per minute
Average heart rate after 2nd dosage (test subject [1]; [10]): 88.9 per minute
Change in oxygen consumption after 2nd dos. (test subject [4]; 1 mg series): +78%
Change in oxygen consumption after 4th dos. (test subject [4]; 1 mg series): −63%
Average heart rate after 1st dos. (test subject [4]; [11]): 73.2 per minute
Change in oxygen consumption after 3rd dos. (test subject [4]; [12]): +3%
Suitability for reducing the oxygen consumption during physical work [2]: suitable
Average heart rate after 4th dos. (test subject [5]; 1 mg series): 82.2 per minute
Average heart rate after 3rd dos. (test subject [5]; [13]): 113.9 per minute
Average heart rate after 2nd dos. (test subject [5]; [14]): 112.4 per minute

CN1CCC(=C2c3ccccc3C=Cc3ccccc32)CC1 [cyproheptadine]
Change in the oxygen consumption after 2nd dosage (test subject [1]; 2nd dosage 0.2 mg, after 5 mg of chlordiazepoxide, 100 W): −76%
Change in the oxygen consumption after 2nd dosage (test subject [1]; 2nd dosage 0.2 mg, after 10 mg of amitriptyline, 100 W): −63%
Average heart rate after 2nd dosage (test subject [1]; 2nd dosage 0.2 mg, after 1st dosage of 5 mg of chlordiazepoxide, 100 W): 88.5 per minute
Average heart rate after 2nd dosage (test subject [1]; 2nd dosage 0.2 mg, after 1st dosage of 10 mg of amitriptyline, 100 W): 87.6 per minute
Change in oxygen consumption after 2nd dos. (test subject [4]; 0.2 mg series): +69%
Change in oxygen consumption after 4th dos. (test subject [4]; 0.2 mg series): −45%
Average heart rate after 1st dos. (test subject [4]; 1st dosage 0.2 mg as dilute aqueous solution): 74.7 per minute
Change in oxygen consumption after 3rd dos. (test subject [4]; 3rd dosage further 0.2 mg of active ingredient): −5%
Average heart rate after 4th dos. (test subject [5]; 0.2 mg series): 83.9 per minute
Average heart rate after 3rd dos. (test subject [5]; 3rd dosage further 0.2 mg of active ingredient after sucrose): 106.4 per minute
Average heart rate after 2nd dos. (test subject [5]; after 0.2 mg of active ingredient): 109.1 per minute

CN(C)CCN1C(=O)c2ccccc2N(C)c2ccccc21 [dibenzepin]
Change in the oxygen consumption after 2nd dosage (test subject [1]; [9]): −59%
Average heart rate after 2nd dosage (test subject [1]; [10]): 88.3 per minute
Change in oxygen consumption after 2nd dos. (test subject [4]; 1 mg series): +69%
Change in oxygen consumption after 4th dos. (test subject [4]; 1 mg series): −57%
Average heart rate after 1st dos. (test subject [4]; [11]): 77.2 per minute
Change in oxygen consumption after 3rd dos. (test subject [4]; [12]): 0%
Suitability for reducing the oxygen consumption during physical work [2]: suitable
Average heart rate after 4th dos. (test subject [5]; 1 mg series): 86.4 per minute
Average heart rate after 3rd dos. (test subject [5]; [13]): 115 per minute
Average heart rate after 2nd dos. (test subject [5]; [14]): 111.5 per minute

COc1ccc2c3c1O[C@H]1[C@@H](O)CC[C@H]4[C@@H](C2)N(C)CC[C@@]341 [dihydrocodeine]
Suitability for reducing the oxygen consumption during physical work [2]: suitable

CN(C)CCOC(C)(c1ccccc1)c1ccccn1 (stereo not drawn) [doxylamine]
Oxygen demand after administration [2]: not reduced

CN1C(=O)CN=C(c2ccccc2F)c2cc([N+](=O)[O-])ccc21 [flunitrazepam]
Suitability for reducing the oxygen consumption during physical work [2]: suitable
change in vivo at 1 mg (test subject [3]; [7]): -39%
change in vivo at 1 mg (test subject [3]; [8]): -40%

O=C1Nc2ccc(Cl)cc2C(c2ccccc2Cl)=NC1O (stereo not drawn) [lorazepam]
Average heart rate after 1st dosage (test subject [1]; 1st dosage 1 mg in 20 ml of water): 121.5 per minute
change in vivo at 1 mg (test subject [1]; Homo sapiens, 1st dosage 1 mg, 100 W, read-out: Change in the oxygen consumption after 1st dosage): 34%
Oxygen demand after administration [2]: not reduced

CN1CC[C@]23c4c5ccc(O)c4O[C@H]2[C@@H](O)C=C[C@H]3[C@H]1C5 [morphine]
Suitability for reducing the oxygen consumption during physical work [2]: suitable

COc1ccc2c(c1OC)C(=O)O[C@@H]2[C@H]1c2c(cc3c(c2OC)OCO3)CCN1C [noscapine]
Suitability for reducing the oxygen consumption during physical work [2]: suitable

OCCN1CCN(CCCN2c3ccccc3C=Cc3ccccc32)CC1 [opipramol]
Oxygen demand after administration [2]: not reduced

O=C1Nc2ccc(Cl)cc2C(c2ccccc2)=NC1O (stereo not drawn) [oxazepam]
change in vivo at 7 mg (test subject [1]; Homo sapiens, 1st dosage 7 mg, 100 W, read-out: Change in the oxygen consumption after 1st dosage): 33%
change in vivo at 1 mg (test subject [3]; [7]): 0%
change in vivo at 1 mg (test subject [3]; [8]): 7%

CSc1ccc2c(c1)N(CCC1CCCCN1C)c1ccccc1S2 (stereo not drawn) [thioridazine]
Change in the oxygen consumption after 2nd dosage (test subject [1]; 2nd dosage 1 mg, after 10 mg of imipramine, 100 W): −56%
Average heart rate after 2nd dosage (test subject [1]; 2nd dosage 1 mg, after 1st dosage of 10 mg of imipramine, 100 W): 81.5 per minute
Change in oxygen consumption after 2nd dos. (test subject [4]; 1 mg series): +69%
Change in oxygen consumption after 4th dos. (test subject [4]; 1 mg series): −49%
Average heart rate after 1st dos. (test subject [4]; [11]): 76.3 per minute
Change in oxygen consumption after 3rd dos. (test subject [4]; [12]): 0%
Suitability for reducing the oxygen consumption during physical work [2]: suitable
Average heart rate after 4th dos. (test subject [5]; 1 mg series): 86.5 per minute
Average heart rate after 3rd dos. (test subject [5]; [13]): 111.2 per minute
Average heart rate after 2nd dos. (test subject [5]; [14]): 111.0 per minute

CN1CCN(C(=O)OC2c3nccnc3C(=O)N2c2ccc(Cl)cn2)CC1 (stereo not drawn) [zopiclone]
Suitability for reducing the oxygen consumption during physical work [2]: suitable
change in vivo at 1 mg (test subject [3]; [8]): -44%
